Test [1] has as its system HCV NS3/4A protease D168A variant. The format is biochemical, Hepatitis C virus genotype 1a.
Test [2] deals with T1, HCV NS3/4A protease D168A variant (Hepatitis C virus genotype 1a, UniProt P27958, C1185S/D1194A).
T1 construct: His tag (cleaved yes); made in house; host or cells: Escherichia coli BL21(DE3), pET28a
The format is biochemical. Conditions: for Ki: 2 nM protease preincubated 1 h at room temperature with inhibitor, pH 7.5, 200 nM fluorogenic substrate, Morrison equation global fit, error from global fit of at least three replicates.

For test [3], the target named is T2, HCV NS3/4A protease GT1a WT (Hepatitis C virus genotype 1a, UniProt P27958, C1185S).
T2 construct: His tag (cleaved yes); made in house; host or cells: Escherichia coli BL21(DE3), pET28a
In kind it is biochemical. Conditions: for Ki: 2 nM protease preincubated 1 h at room temperature with inhibitor, pH 7.5, 200 nM fluorogenic substrate, Morrison equation global fit, error from global fit of at least three replicates; for Fold increase in potency against WT compared with the parent compound: relative to parent compound, WT protease.

T1 sequence (P27958 1027-1208 C1185S/D1194A): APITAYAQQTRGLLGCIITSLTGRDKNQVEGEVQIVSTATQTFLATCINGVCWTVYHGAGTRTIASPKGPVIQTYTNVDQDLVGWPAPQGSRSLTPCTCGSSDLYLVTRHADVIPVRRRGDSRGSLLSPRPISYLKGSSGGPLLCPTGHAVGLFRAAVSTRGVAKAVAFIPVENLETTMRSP
T2 sequence (P27958 1027-1208 C1185S): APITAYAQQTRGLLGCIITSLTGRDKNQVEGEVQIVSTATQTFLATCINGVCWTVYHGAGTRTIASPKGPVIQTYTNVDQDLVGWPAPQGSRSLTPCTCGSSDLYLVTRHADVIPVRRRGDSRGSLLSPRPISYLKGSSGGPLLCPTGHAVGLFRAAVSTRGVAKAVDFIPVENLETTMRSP

As usually defined, the Ki is a dissociation constant, usually derived from enzyme kinetics or from competition with a known ligand. Read a high Ki as a looser hold on the target. With `COc1ccc2nc(C)c(O[C@@H]3C[C@H]4C(=O)N[C@]5(C(=O)NS(=O)(=O)C6(C)CC6)C[C@H]5/C=C\CCCCC[C@H](NC(=O)OC5(C)CCC5)C(=O)N4C3)nc2c1` [P4-2], the “Fold change of Ki, D168A relative to WT” value in test [1] is given as 33 fold. This compound registered an inhibitory constant (Ki) in test [2] of 46.4 ± 3.4 nM. Besides, in test [3], the affinity, expressed as Ki, was 1.4 ± 0.13 nM and the “Fold increase in potency against WT compared with the parent compound” value is 4 fold.
In the case of `COC(=O)N[C@H](C(=O)N[C@H]1CCCCC/C=C\[C@@H]2C[C@@]2(C(=O)NS(=O)(=O)C2(C)CC2)NC(=O)[C@@H]2C[C@@H](Oc3nc4cc(OC)ccc4nc3C)CN2C1=O)C(C)C` [P4P5-1B], the “Fold change of Ki, D168A relative to WT” value in test [1] came to 8 fold. For the same compound, the inhibition constant Ki worked out at 102 ± 6.8 nM in test [2] and 13 ± 0.8 nM in test [3].
In the case of `COc1ccc2nc(C)c(O[C@@H]3C[C@H]4C(=O)N[C@]5(C(=O)NS(=O)(=O)C6(C)CC6)C[C@H]5/C=C\CCCCC[C@H](NC(=O)OC5C[C@@H]6C[C@@H]6C5)C(=O)N4C3)nc2c1` (stereo partly shown) [P4-7], in test [1], the “Fold change of Ki, D168A relative to WT” value is listed as 4 fold. For the same compound, in test [2], the “Fold increase in potency against D168A compared with grazoprevir” value was approximately 20 fold; the “Fold increase in potency against D168A compared with the parent compound” value is recorded as approximately 20 fold; the affinity, expressed as Ki, was 2.3 ± 0.7 nM. In test [3], the inhibition constant Ki was 0.54 ± 0.2 nM and the “Fold increase in potency against WT compared with the parent compound” value is listed as “approximately 6.5 fold”.
In the case of `CCC1(OC(=O)N[C@H]2CCCCC/C=C\[C@@H]3C[C@@]3(C(=O)NS(=O)(=O)C3(C)CC3)NC(=O)[C@@H]3C[C@@H](Oc4nc5cc(OC)ccc5nc4C)CN3C2=O)CCCC1` [P4-5], the “Fold change of Ki, D168A relative to WT” value in test [1] is 17 fold. In addition, the Ki in test [2] was determined as 21.7 ± 2.3 nM; in test [3], 1.29 ± 0.05 nM.
Turning to `COC(=O)NC1(C(=O)N[C@H]2CCCCC/C=C\[C@@H]3C[C@@]3(C(=O)NS(=O)(=O)C3(C)CC3)NC(=O)[C@@H]3C[C@@H](Oc4nc5cc(OC)ccc5nc4C)CN3C2=O)CCCC1` [P4P5-5], the “Fold change of Ki, D168A relative to WT” value in test [1] is 30 fold. The Ki in test [2] was found to be 931 ± 70 nM; in test [3], 31 ± 2.74 nM.
As for `CCc1nc2ccc(OC)cc2nc1O[C@@H]1C[C@H]2C(=O)N[C@]3(C(=O)NS(=O)(=O)C4CC4)C[C@H]3/C=C\CCCCC[C@H](NC(=O)OC(C)(C)C)C(=O)N2C1` [5172-mcP1P3, reference compound], the inhibition constant (Ki) stood at 82.4 ± 4.4 nM in test [2] and 3.29 ± 0.52 nM in test [3].
Regarding `COc1ccc2nc(C)c(O[C@@H]3C[C@H]4C(=O)N[C@]5(C(=O)NS(=O)(=O)C6(C)CC6)C[C@H]5/C=C\CCCCC[C@H](NC(=O)OC5CCCCC5)C(=O)N4C3)nc2c1` [P4-6], in test [1], the “Fold change of Ki, D168A relative to WT” value was determined as 14 fold. Moreover, the Ki was found to be 12.7 ± 1.2 nM in test [2] and 0.94 ± 0.25 nM in test [3].
As to `COc1ccc2nc(C)c(O[C@@H]3C[C@H]4C(=O)N[C@]5(C(=O)NS(=O)(=O)C6(C)CC6)C[C@H]5/C=C\CCCCC[C@H](NC(=O)OC5(C)CC5)C(=O)N4C3)nc2c1` [P4-1], the “Fold change of Ki, D168A relative to WT” value in test [1] is given as 6 fold. In addition, in test [2], the “Fold increase in potency against D168A compared with the parent compound” value is recorded as approximately 2 fold and the affinity corresponds to a Ki of 27.9 ± 4.1 nM. Also, in test [3], the Ki worked out at 4.44 ± 0.3 nM.

Values taken from PMC7157764, “Avoiding Drug Resistance by Substrate Envelope-Guided Design: Toward Potent and Robust HCV NS3/4A Protease Inhibitors” (mBio, 2020).
